Consider four compounds from patent publication US20210023089A1, “Compositions Useful for Treating Herpes Simplex Keratitis, and Methods Using Same” (priority 2013, published 2021).

Test [1] concerns ATM. Nature of the test: ATM activation (pChk2 Western blot) in HSV-1 infected hTCEpi cells. The class given is cell-based, human. Particulars: for effect on ATM activation (pChk2 staining): hTCEpi infected with HSV-1 at a range of MOIs, 1 hpi, PAA 400 μg/ml, CHX 5 μg/ml. How it is done: Standard protocol was followed for Western blot analysis. Cell lysates were collected in Laemmli buffer, vortexed, and boiled at 95° C. for 5 min. Protein concentrations were measured by reducing agent-compatible BCA assay. SDS-PAGE was followed by transfer onto a PVDF membrane, which was then blocked in 5% BSA. Primary antibody staining was performed overnight and blots were visualized on film or with the Odyssey near-infrared system (LI-COR, Lincoln, Nebr.). Primary antibodies against the following proteins were used: ICP0 (Virusys Corporation, Taneytown, Md.), ICP4, PML, and nucleolin (Santa Cruz Biotechnology, Santa Cruz, Calif.), ICP8, glycoproteins B and C, ATM and pATM-Ser1981 (Rockland, Gilbertsville, Pa.), Chk2 and pChk2-Thr68 (Cell Signaling, Danvers, Mass.).
(§1) hTCEpi, EPC2, and OKF6 are normal human epithelial cells from cornea, esophagus, and palate, respectively. HEK293 are human embryonic kidney epithelial cells. Cells were treated with tissue culture grade KU-55933 (10 μM), cycloheximide (5 μg/ml), phosphonoacetic acid (400 μg/ml), and H2O2 (150 μM). Viral particles were pre-treated with UV light at 0.2 J/cm^2.
Cultured cells were infected by applying the desired viral load in an inoculum volume equal to 10% of the normal volume of growth medium. During infection, cells were maintained at 37° C. and 5% CO2 and rocked every 10-15 min for 1 hour. Cells were then rinsed thoroughly with PBS and overlaid with fresh medium. For synchronized infections, virus was allowed to adsorb to cells while rocking at 4° C. After 1 hour, cells were transferred to 37° C. and 5% CO2 to initiate synchronized infection.

The test system of test [2] is ATM. The test is described as follows: pATM immunofluorescence in HEK293 cells transfected with purified HSV-1 genome. The class given is cell-based, human. The conditions noted are these: HEK293 transfected with HSV-1 KOS genome, PAA for 24 hours. How it is done:
Transfection of plasmids was done with GenDrill (BamaGen, Gaithersburg, Md.), whereas transfection of BACs was accomplished with Lipofectamine transfection reagent (Invitrogen, Carlsbad, Calif.). All transfections followed standard protocols and manufacturer's instructions. Medium was changed at 6 hour post transfection.
Cells were grown on cover slips, treated as indicated, fixed in 3% paraformaldehyde/2% sucrose solution for 10 min, and permeabilized with 0.5% Triton X-100 for 5 min. Indirect immunofluorescence was performed with primary antibodies overnight followed by secondary antibody staining for 2 hours. Primary antibodies were the same as those used for Western blotting. Nuclei were counterstained with […] of Höchst 33258.
as §1

For test [3], the system named is dlsptk strain of HSV-1 (TK mutant). Nature of the test: qPCR of genome replication of drug-resistant HSV-1 in hTCEpi cells. The class given is cell-based. Particulars: MOI 0.1, 16 hpi, KU-55933 10 μM, acyclovir 50 μg/mL. On the procedure:
All cells were cultured at 37° C. and 5% CO2 and supplemented with 100 U/mL penicillin and […]. Human corneal epithelial cells immortalized with hTERT (hTCEpi; Robertson, et al., 2005, Invest Ophthalmol Vis Sci. 46:470-478) were grown in complete keratinocyte growth medium 2 (KGM-2; Lonza, Basel, Switzerland). African green monkey kidney fibroblasts (CV-1; American Type Culture Collection, Manassas, Va.) were grown in Dulbecco's modified Eagle's medium (DMEM; Cellgro, Manassas, Va.) supplemented with 10% FBS. The KOS strain of HSV-1 was used in the in vitro and ex vivo infections, whereas McKrae strain was used for in vivo mouse experiments, and TK mutant dlsptk strain (Coen et al., 1989, Proc Natl Acad Sci USA 86:4736-4740) was used in the drug resistance experiments. All viral stocks were titered on CV-1 monolayers.
The following strains of HSV-1 were used: KOS, ICPO-null, HFEM, and tsB7. Subconfluent monolayers of cells were grown in six-well plates. Drug treatments were administered 45 minutes prior to infection and continued for the entire duration of each experiment. Unless indicated otherwise, KU-55933 (Batch No. 5, 99.7% purity; Tocris Bioscience, Bristol, UK) was used at 10 μM final concentration, phosphonoacetic acid (PAA) at 400 μg/mL (Sigma-Aldrich, St. Louis, Mo.), and acyclovir at 50 μg/mL (Sigma-Aldrich). KU-55933 was dissolved in dimethyl sulfoxide (DMSO), and the final concentration of DMSO in both KU-55933 and mock treatment in the in vitro and the ex vivo experiments was 0.1%.
Viral genome replication and transcription were measured by quantitative PCR (qPCR). Total DNA and RNA from infected cells were isolated using the DNeasy Blood & Tissue Kit and the RNeasy Mini Kit, respectively (QIAGEN, Hilden, Germany). RNA was converted to cDNA using qScript (Quanta BioSciences, Gaithersburg, Md.). […] Transcription of the three gene families was measured with primers for RL2 (ICPO), UL30 (DNA polymerase catalytic subunit), and UL44 (gC), with reference primers for the 18S ribosomal RNA (rRNA).
On the technique in general: Quantitative PCR measures a nucleic acid by following its amplification.

In test [4] the target is T1, ATM (Homo sapiens, UniProt Q13315).
T1 construct: The epithelial layers were collected for protein lysates and analyzed by Western blot with antibodies against pATM (Ser1981) and total ATM; tissue Lions Eye Bank of Delaware Valley; host or cells: epithelial layer of explanted human corneas
The test is described as follows: pATM Western blot in bleomycin-damaged ex vivo human corneas (bioavailability). The conditions noted are these: bleomycin 200 μg/mL 1 hour, KU-55933 10 μM 1 hour pretreatment. The class given is cell-based. On the procedure:
Human corneas were obtained from the Lions Eye Bank of Delaware Valley. Rabbit corneas were excised from intact fresh eyeballs of young (8-12 weeks) albino rabbits (Pel-Freez Biologicals, Rogers, Ark.). Protocol (Alekseev et al., 2012, J Vis Exp 69:e3631) for ex vivo corneal culture, infection, and treatment was followed closely. Briefly, corneoscleral buttons were excised and rinsed in PBS containing 200 U/mL penicillin and 200 μg/mL streptomycin. The endothelial concavity was filled with culture medium containing 1% low melting temperature agarose. The corneas were cultured epithelial side up in MEM medium supplemented with nonessential amino acids (1×), 2 mM […], 200 U/mL penicillin, and 200 μg/mL streptomycin. The next day, they were infected with 1×10^4 plaque forming units (PFU)/cornea of strain KOS HSV-1 for 1 hour, rinsed, and overlaid with fresh medium. Drug treatments were administered at the same concentrations as for cultured cells. For KU-55933 bioavailability assessment, corneas were treated with bleomycin (200 μg/mL) for 1 hour. […] Treatment toxicity was assessed by briefly staining the cornea with fluorescein (1% wt/vol in PBS) and imaging the epithelial defects with 464-nm wavelength blue light (LDP LLC, Carlstadt, N.J.).
Standard protocol was followed for Western blot analysis. […] Protein concentrations were measured by bicinchoninic acid (BCA) assay. […]
In general terms: In western blotting, separated proteins are transferred to a membrane and probed.

T1 sequence (Q13315 whole entry): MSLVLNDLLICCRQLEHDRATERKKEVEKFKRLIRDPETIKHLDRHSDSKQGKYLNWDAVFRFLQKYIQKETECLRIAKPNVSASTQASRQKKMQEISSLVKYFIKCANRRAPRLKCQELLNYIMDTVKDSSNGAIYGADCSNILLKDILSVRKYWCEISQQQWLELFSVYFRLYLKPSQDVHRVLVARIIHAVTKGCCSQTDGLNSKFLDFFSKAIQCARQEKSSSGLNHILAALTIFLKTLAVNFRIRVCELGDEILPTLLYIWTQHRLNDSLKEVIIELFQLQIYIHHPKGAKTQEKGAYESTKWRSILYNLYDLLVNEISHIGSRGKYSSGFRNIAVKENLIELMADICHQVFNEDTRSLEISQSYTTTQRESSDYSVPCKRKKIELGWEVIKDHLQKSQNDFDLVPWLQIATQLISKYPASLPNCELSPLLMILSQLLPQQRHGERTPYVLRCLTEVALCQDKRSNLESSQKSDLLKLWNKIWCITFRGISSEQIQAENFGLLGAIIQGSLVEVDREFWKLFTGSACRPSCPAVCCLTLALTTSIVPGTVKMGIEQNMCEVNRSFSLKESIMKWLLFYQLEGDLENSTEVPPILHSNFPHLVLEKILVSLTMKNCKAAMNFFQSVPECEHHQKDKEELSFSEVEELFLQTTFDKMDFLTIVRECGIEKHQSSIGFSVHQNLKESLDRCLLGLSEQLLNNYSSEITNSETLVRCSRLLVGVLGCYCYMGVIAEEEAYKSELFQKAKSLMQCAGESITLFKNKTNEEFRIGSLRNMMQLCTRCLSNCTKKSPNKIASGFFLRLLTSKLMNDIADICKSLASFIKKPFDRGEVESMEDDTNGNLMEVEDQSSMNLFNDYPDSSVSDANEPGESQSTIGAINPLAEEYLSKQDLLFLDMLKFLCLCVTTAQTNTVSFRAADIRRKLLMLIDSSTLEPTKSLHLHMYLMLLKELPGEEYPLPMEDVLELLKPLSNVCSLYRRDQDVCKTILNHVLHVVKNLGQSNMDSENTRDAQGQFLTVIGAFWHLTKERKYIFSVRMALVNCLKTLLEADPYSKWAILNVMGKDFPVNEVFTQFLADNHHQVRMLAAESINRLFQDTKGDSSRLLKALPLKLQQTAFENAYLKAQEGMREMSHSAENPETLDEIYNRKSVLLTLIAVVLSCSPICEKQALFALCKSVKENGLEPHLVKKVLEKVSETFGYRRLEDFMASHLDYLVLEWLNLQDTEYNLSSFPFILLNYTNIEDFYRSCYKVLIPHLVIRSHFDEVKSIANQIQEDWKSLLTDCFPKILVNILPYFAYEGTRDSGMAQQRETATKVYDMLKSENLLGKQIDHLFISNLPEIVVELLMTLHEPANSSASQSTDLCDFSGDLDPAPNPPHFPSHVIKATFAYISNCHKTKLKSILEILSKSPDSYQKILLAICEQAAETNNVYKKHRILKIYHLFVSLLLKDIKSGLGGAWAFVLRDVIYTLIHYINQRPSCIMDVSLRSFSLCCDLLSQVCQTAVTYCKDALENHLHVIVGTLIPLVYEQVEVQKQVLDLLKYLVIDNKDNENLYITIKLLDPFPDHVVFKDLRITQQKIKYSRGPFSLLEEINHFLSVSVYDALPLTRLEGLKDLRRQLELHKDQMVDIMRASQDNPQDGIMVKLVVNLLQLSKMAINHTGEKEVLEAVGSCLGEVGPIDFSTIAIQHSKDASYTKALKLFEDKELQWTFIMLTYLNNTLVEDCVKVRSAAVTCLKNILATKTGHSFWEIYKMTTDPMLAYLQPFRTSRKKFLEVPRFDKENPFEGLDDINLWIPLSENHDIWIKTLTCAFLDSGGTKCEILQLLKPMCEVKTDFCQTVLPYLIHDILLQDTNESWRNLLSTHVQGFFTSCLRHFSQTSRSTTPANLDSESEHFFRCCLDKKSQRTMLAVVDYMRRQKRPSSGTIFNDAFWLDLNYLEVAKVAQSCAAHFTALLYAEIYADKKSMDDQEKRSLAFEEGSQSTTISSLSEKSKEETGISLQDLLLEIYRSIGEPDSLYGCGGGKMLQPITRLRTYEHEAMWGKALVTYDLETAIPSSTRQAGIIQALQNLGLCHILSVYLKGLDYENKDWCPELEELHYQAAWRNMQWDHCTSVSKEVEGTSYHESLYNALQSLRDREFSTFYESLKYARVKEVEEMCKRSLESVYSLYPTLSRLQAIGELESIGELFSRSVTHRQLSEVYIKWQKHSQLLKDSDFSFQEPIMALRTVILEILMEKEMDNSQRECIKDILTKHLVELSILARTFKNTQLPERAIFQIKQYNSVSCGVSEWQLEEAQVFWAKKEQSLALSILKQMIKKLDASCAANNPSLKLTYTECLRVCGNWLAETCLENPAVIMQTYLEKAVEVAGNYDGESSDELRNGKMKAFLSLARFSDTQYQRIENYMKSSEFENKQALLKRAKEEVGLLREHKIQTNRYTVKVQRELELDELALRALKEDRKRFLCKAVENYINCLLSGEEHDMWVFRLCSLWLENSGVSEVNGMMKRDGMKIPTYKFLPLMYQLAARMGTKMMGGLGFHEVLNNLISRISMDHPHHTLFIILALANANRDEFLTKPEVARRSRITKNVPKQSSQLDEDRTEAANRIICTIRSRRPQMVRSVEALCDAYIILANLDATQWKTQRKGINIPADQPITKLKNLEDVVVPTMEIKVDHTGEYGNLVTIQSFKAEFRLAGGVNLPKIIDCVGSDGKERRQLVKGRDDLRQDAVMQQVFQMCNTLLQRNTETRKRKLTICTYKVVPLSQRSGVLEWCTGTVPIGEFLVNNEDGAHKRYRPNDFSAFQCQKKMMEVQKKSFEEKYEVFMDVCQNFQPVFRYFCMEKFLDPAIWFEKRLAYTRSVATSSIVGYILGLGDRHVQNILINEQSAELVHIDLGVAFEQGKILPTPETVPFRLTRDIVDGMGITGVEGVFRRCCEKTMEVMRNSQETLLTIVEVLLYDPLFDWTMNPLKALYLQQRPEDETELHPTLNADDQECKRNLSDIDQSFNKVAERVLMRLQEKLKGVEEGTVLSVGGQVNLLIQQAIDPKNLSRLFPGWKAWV

As for `C[C@@H]1C[C@@H]([C@H](O)CC2CC(=O)NC(=O)C2)C(=O)[C@@H](C)C1` [CHX, cycloheximide], in the test with ATM [1] (PML-depleted hTCEpi cells, compared with WT hTCEpi cells), the “effect on pChk2 staining in PML-depleted cells” value was “same partial reduction”. In addition, the “effect on ATM activation (pChk2 staining)” value in the test with ATM [1] is given as “partial inhibitory effect”. Besides, the “effect on ATM activation by d120 (ICP4-null strain)” value in the test on ATM [1] (hTCEpi infected with d120, CHX 5 μg/ml) is “not affected”.

Consider `O=C(O)CP(=O)(O)O` [PAA, phosphonoacetic acid], for which the “effect on ATM activation (pChk2 staining)” value with ATM [1] was “no effect”. In the test on ATM [2], the “ATM activation (pATM staining) in treated transfected cells” value was “not hindered in ATM activation”.

Regarding `Nc1nc2c(ncn2COCCO)c(=O)[nH]1` [acyclovir], the “genome replication of dlsptk strain (qPCR)” value in test [3] is “largely unresponsive”.

In the case of bleomycin, the “pATM level in corneal epithelium” value at ATM [4] is listed as “high level of pATM”.
